Source: ChEMBL document CHEMBL4477157, “Iridoid Glucosides and Diterpenoids from Caryopteris glutinosa” (J Nat Prod, 2016)

Assays:
[1] = system: KGN; assay: Induction of estrogen biosynthesis in human KGN cells assessed as upregulation of E2 concentration at 25 uM preincubated for 24 hrs followed by testosterone addition for 24 hrs by magnetic particle based ELISA; assay type: functional
[2] = system: KGN; assay: Induction of estrogen biosynthesis in human KGN cells assessed as upregulation of E2 concentration preincubated for 24 hrs followed by testosterone addition for 24 hrs by magnetic particle based ELISA; assay type: functional, cell-based
[3] = system: KGN; assay: Upregulation of aromatase expression in human KGN cells at 10 to 50 uM after 24 hrs by Western blot analysis; assay type: functional

With CC(=O)CC[C@@]1(C)[C@H](C)CC[C@@]2(C)C(CO)=CCC[C@H]12 the “fold change (FC)” value [1] was 2, the Activity [2] was “Dose-dependent effect” and the EC50 [2] was 8 µM. For the same compound, the “fold change (FC)” value [3] was 1.5.

For COc1cc(/C=C/C(=O)OC[C@H]2O[C@@H](O[C@@H]3OC=C[C@@]4(O)[C@H](O)C[C@](C)(OC(C)=O)[C@@H]34)[C@H](O)[C@@H](O)[C@@H]2O)cc(OC)c1O, the “fold change (FC)” value [1] was 2, the Activity [2] was “Dose-dependent effect” and the EC50 [2] was 11.1 µM. The “fold change (FC)” value [3] was 1.5.
